# Laboratory results from ChEMBL document CHEMBL3112505, “Discovery of novel indazole derivatives as dual angiotensin II antagonists and partial PPARγ agonists” (Bioorg Med Chem Lett, 2014).
# Calls of active or inactive are those of the source. The calls are words filed in the database; no cut-off is given here.
# How the values were obtained:
# [1] = target: T1, Type-1 angiotensin II receptor (Homo sapiens, UniProt P30556); assay: Antagonist activity at human AT1 receptor expressed in CHO cells measured after overnight incubation by luciferase reporter gene assay; type: cell-based
# T1 sequence (P30556 whole entry): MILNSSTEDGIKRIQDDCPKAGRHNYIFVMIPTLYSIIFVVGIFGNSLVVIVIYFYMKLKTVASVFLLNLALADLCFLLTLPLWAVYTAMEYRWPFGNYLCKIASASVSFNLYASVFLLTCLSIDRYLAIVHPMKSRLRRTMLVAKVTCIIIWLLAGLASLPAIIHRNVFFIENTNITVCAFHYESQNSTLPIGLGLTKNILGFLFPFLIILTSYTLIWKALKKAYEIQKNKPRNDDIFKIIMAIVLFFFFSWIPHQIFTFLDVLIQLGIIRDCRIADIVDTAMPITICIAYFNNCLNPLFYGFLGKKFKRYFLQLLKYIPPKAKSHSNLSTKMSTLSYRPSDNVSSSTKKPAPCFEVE
# [2] = AUC in Zucker fa/fa rat at 30 mg/kg, po; type: ADME, organism-based; parameters: dose 30 mg/kg, route oral; details: plasma
# [3] = target: T2, Peroxisome proliferator-activated receptor gamma (Homo sapiens) (UniProt P37231); assay: Partial agonist activity at human PPARgamma expressed in CV-1 cells by reporter gene assay relative to rosiglitazone; type: cell-based
# T2 sequence (whole entry): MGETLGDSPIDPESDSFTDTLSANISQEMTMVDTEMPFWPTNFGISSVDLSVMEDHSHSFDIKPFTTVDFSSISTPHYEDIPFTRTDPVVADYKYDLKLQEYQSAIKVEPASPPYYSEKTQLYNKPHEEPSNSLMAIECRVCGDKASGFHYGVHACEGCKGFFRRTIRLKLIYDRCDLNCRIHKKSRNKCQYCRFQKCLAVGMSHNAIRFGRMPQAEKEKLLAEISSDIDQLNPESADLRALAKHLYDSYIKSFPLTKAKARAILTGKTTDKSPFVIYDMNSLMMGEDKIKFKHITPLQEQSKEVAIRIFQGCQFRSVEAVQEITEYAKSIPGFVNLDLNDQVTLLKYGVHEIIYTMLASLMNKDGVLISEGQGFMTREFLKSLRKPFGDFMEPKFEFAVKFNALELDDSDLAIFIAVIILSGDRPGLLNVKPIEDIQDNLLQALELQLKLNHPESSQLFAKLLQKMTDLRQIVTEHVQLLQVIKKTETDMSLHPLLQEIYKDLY
# Rattus norvegicus [4] = assay: Antihypertensive activity in dosed SHR NCrl rat assessed as decrease in systolic blood pressure at 10 mg/kg, po administered daily for 12 days relative to baseline control; type: functional, organism-based; parameters: dose 10 mg/kg; details: Artery
# Rattus norvegicus [5] = assay: Reduction in free fatty acid level in Zucker fa/fa rat plasma at 75 mg/kg, po qd for 5 days relative to vehicle-treated control control; type: functional, organism-based; parameters: dose 75 mg/kg
# Rattus norvegicus [6] = assay: Antihypertensive activity in dosed SHR NCrl rat assessed as decrease in diastolic blood pressure at 10 mg/kg, po administered daily for 12 days relative to vehicle-treated control control; type: functional, organism-based; parameters: dose 10 mg/kg; details: Artery
# Rattus norvegicus [7] = assay: Reduction in triglyceride level in Zucker fa/fa rat plasma at 75 mg/kg, po qd for 5 days relative to vehicle-treated control control; type: functional, organism-based; parameters: dose 75 mg/kg
# [8] = target: T3, Peroxisome proliferator-activated receptor delta (Mus musculus, UniProt P35396); assay: Agonist activity at mouse PPARdelta expressed in CV-1 cells by reporter gene assay; type: cell-based
# T3 sequence (P35396 whole entry): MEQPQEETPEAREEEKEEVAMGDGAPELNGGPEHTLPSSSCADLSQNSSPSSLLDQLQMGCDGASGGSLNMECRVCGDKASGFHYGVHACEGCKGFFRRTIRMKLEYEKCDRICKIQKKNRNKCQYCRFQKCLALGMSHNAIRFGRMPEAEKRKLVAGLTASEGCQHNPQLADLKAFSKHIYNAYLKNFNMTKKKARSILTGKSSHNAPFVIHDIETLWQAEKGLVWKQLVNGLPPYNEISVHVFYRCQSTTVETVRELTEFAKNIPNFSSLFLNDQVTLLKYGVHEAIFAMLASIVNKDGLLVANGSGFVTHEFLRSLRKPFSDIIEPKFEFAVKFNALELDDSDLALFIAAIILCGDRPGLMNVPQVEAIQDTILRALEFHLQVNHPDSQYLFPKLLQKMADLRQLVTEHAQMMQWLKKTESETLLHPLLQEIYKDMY
# [9] = Clearance in Zucker fa/fa rat at 5.2 mg/kg, iv; type: ADME, organism-based; parameters: dose 5.2 mg/kg, route intravenous; details: in vivo
# [10] = Oral bioavailability in Zucker fa/fa rat at 30 mg/kg; type: ADME, organism-based; details: in vivo
# Rattus norvegicus [11] = assay: Antihypertensive activity in dosed SHR NCrl rat assessed as decrease in diastolic blood pressure at 10 mg/kg, po administered daily for 12 days relative to baseline control; type: functional, organism-based; parameters: dose 10 mg/kg; details: Artery
# [12] = target: T4, Peroxisome proliferator-activated receptor gamma (Homo sapiens, UniProt P37231); assay: Partial agonist activity at human PPARgamma expressed in CV-1 cells by reporter gene assay; type: cell-based
# T4 sequence (P37231 whole entry): T2 sequence (whole entry)
# Rattus norvegicus [13] = assay: Antihypertensive activity in dosed SHR NCrl rat assessed as decrease in systolic blood pressure at 10 mg/kg, po administered daily for 12 days relative to vehicle-treated control control; type: functional, organism-based; parameters: dose 10 mg/kg; details: Artery
# [14] = target: T5, Peroxisome proliferator-activated receptor alpha (Mus musculus, UniProt P23204); assay: Agonist activity at mouse PPARalpha expressed in CV-1 cells by reporter gene assay; type: cell-based
# T5 sequence (P23204 whole entry): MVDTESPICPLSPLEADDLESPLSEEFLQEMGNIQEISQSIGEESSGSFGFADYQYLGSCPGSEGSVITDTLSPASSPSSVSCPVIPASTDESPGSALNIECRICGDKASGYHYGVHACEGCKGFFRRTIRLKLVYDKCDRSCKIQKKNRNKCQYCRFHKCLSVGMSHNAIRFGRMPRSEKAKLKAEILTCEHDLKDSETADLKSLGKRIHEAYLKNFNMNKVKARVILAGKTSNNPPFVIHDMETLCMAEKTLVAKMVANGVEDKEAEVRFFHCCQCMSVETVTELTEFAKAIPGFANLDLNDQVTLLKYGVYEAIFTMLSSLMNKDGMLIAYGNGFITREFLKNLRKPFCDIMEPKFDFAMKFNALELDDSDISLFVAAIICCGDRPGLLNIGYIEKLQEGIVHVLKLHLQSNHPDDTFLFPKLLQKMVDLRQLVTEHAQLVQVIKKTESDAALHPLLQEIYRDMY
# Rattus norvegicus [15] = assay: Reduction in insulin level in Zucker fa/fa rat plasma at 75 mg/kg, po qd for 5 days relative to vehicle-treated control control; type: functional, organism-based; parameters: dose 75 mg/kg
# [16] = AUC in Zucker fa/fa rat at 5.2 mg/kg, iv; type: ADME, organism-based; parameters: dose 5.2 mg/kg, route intravenous; details: plasma
# [17] = Half life in Zucker fa/fa rat at 5.2 mg/kg, iv; type: ADME, organism-based; parameters: dose 5.2 mg/kg, route intravenous; details: in vivo
# [18] = target: T6, Peroxisome proliferator-activated receptor gamma (Mus musculus) (UniProt P37238); assay: Partial agonist activity at mouse PPARgamma expressed in CV-1 cells by reporter gene assay relative to rosiglitazone; type: cell-based
# T6 sequence (whole entry): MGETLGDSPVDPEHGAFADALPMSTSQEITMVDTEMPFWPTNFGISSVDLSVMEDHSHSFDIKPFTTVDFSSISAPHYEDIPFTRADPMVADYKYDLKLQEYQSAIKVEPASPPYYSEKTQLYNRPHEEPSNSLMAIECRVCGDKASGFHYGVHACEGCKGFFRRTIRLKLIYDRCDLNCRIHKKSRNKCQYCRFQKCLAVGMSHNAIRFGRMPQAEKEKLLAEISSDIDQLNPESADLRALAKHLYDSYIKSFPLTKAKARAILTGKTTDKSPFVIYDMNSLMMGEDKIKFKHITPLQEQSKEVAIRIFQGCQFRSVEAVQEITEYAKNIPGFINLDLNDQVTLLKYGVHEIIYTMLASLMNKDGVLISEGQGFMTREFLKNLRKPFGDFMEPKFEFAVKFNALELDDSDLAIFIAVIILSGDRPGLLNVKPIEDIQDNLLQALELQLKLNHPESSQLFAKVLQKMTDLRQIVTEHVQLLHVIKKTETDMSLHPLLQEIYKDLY
# [19] = Volume of distribution at steady state in Zucker fa/fa rat 5.2 mg/kg, iv; type: ADME, organism-based; parameters: dose 5.2 mg/kg, route intravenous; details: in vivo, read-out: Vdss
# [20] = target: T7, Peroxisome proliferator-activated receptor gamma (Mus musculus, UniProt P37238); assay: Partial agonist activity at mouse PPARgamma expressed in CV-1 cells by reporter gene assay; type: cell-based
# T7 sequence (P37238 whole entry): T6 sequence (whole entry)
# [21] = target: T4, Peroxisome proliferator-activated receptor gamma; assay: Agonist activity at human PPARgamma expressed in CV-1 cells by reporter gene assay; type: cell-based
# [22] = target: T6, Peroxisome proliferator-activated receptor gamma (Mus musculus); assay: Agonist activity at mouse PPARgamma expressed in CV-1 cells by reporter gene assay relative to rosiglitazone; type: cell-based
# [23] = target: T7, Peroxisome proliferator-activated receptor gamma; assay: Agonist activity at mouse PPARgamma expressed in CV-1 cells by reporter gene assay; type: cell-based
# [24] = target: T8, Peroxisome proliferator-activated receptor alpha (Mus musculus) (UniProt P23204); assay: Agonist activity at mouse PPARalpha expressed in CV-1 cells by reporter gene assay relative to rosiglitazone
# T8 sequence (whole entry): T5 sequence (P23204 whole entry)
Compound,IC50 [1],EC50 [14],EC50 [21],max activation [22],EC50 [23],further results
CCC(NC(=O)c1ccc2c(c1)c(C)c(C)n2Cc1ccc(-c2ccccc2C(=O)O)cc1)c1ccccc1 (configuration not stated),> 10000 nM,–,–,–,–,–
CCCCn1c(-c2ccc3nn(CCC)c(Cc4ccc(-c5ccccc5-c5nn[nH]n5)cc4)c3c2)nc2ccccc21,6 nM,> 10000 nM,–,–,–,AUC [2]: 36300 ng·h/mL; max activation [3]: 40%; Activity (Rattus norvegicus [4]): Active; Activity (Rattus norvegicus [5]): Active; Activity (Rattus norvegicus [6]): Active; Activity (Rattus norvegicus [7]): Active; EC50 [8]: > 10000 nM; clearance [9]: 11 mL/min/kg; bioavailability [10]: 78%; Activity (Rattus norvegicus [11]): Active; EC50 [12]: 250 nM; Activity (Rattus norvegicus [13]): Active; Activity (Rattus norvegicus [15]): Active; AUC [16]: 8010 ng·h/mL; half-life [17]: 14 h; max activation [18]: 18%; Vd [19]: 7.8 L/kg; EC50 [20]: 270 nM
CCCc1nc2cc(C(=O)NC(CC)c3ccccc3)ccc2n1Cc1ccc(-c2ccccc2C(=O)O)cc1 (configuration not stated),128 nM,–,2650 nM,–,–,–
CCCc1nn2ccc(C(=O)NC(CC)c3ccccc3)cc2c1Cc1ccc(-c2ccccc2-c2nn[nH]n2)cc1 (configuration not stated),–,–,–,9%,–,–
CCCc1c(Cc2ccc(-c3ccccc3C(=O)O)cc2)c2ccc(C(=O)NC(CC)c3ccccc3)cc2n1C (configuration not stated),> 10000 nM,170 nM,2 nM,42%,3 nM,max activation [24]: 90%
CCCc1[nH]c2ccc(C(=O)NC(CC)c3ccccc3)cc2c1Cc1ccc(-c2ccccc2C(=O)O)cc1 (configuration not stated),> 10000 nM,> 10000 nM,350 nM,24%,510 nM,–
CCCc1nc2ccc(C(=O)NC(CC)c3ccccc3)cc2n1Cc1ccc(-c2ccccc2C(=O)O)cc1 (configuration not stated),288 nM,–,–,–,–,–
CCCc1[nH]c2cc(C(=O)NC(CC)c3ccccc3)ccc2c1Cc1ccc(-c2ccccc2C(=O)O)cc1 (configuration not stated),> 10000 nM,790 nM,6 nM,36%,9 nM,max activation [24]: 71%
